Usually IC50 stands for the concentration at which inhibition is half-maximal. In general, Ki refers to a measure of affinity in units of concentration, obtained from inhibition or displacement. A word on the EC50: it is the concentration needed to bring the measured effect to its halfway point.

The values that follow come from ChEMBL document CHEMBL5131566, “Small-Molecule Thioesters as SARS-CoV-2 Main Protease Inhibitors: Enzyme Inhibition, Structure-Activity Relationships, Antiviral Activity, and X-ray Structure Determination” (J Med Chem, 2022).

For data set [1], the target named is T1, Replicase polyprotein 1ab (Severe acute respiratory syndrome coronavirus 2, UniProt P0DTD1). Put plainly: Inhibition of recombinant his tagged SARS CoV-2 main protease expressed in Escherichia coli BL21 using Boc-Abu-Tle-Leu-Gln-AMC37 as fluorogenic substrate pre-incubated for 5 mins followed by substrate addition measured after 60 mins by FRET based assay.

Data set [2] concerns the target T1, Replicase polyprotein 1ab. Kind of data set: Inhibition of recombinant his tagged SARS CoV-2 main protease expressed in Escherichia coli BL21 assessed as inhibition constant using Boc-Abu-Tle-Leu-Gln-AMC37 as fluorogenic substrate pre-incubated for 5 mins followed by substrate addition measured after 60 mins by FRET based assay.
For data set [3], the target named is Replicase polyprotein 1ab (Severe acute respiratory syndrome coronavirus 2) (UniProt P0DTD1). Put plainly: Time dependent inhibition of recombinant his tagged SARS CoV-2 main protease expressed in Escherichia coli BL21 assessed as ratio of Kinact/Ki using MCA-AVLQSGFR-K(DNP)-K-NH2 as substrate pre-incubated for 5 mins followed by substrate addition measured after 60 mins by FRET based assay.

For data set [4], the system named is Calu-3. Put plainly: Cytotoxicity against human Calu-3 cells assessed as reduction in cell […] at 10 uM incubated for 24 hrs by cell titer glo luminescent assay. The format is toxicity, cell-based. The following applies: calu-3, 24 h. (Cellular ATP, detected with luciferase, serves as a proxy for viable cell number.)
The nature of data set [5]: Inhibition of MERS-CoV -Mpro using Ac-Abu-Tle-Leu-Gln-ACC as substrate incubated for 2 hrs by FRET based assay. Also noted: species or system Middle East respiratory syndrome-related coronavirus.
The test system of data set [6] is Vero 76. Kind of data set: Cytotoxicity against African green monkey Vero 76 cells assessed as reduction in cell […] at 10 uM incubated for 24 hrs by cell titer glo luminescent assay. The following applies: chlorocebus sabaeus, vero 76, 24 h. The format is toxicity, cell-based.
The subject of data set [7] is SARS-CoV-2. Kind of data set: microbe, parasite or virus in culture. Particulars: Severe acute respiratory syndrome coronavirus 2, Calu-3.

Consider `O=C(Sc1nc2ccccc2s1)c1ccc(-c2ccc(Br)cc2)o1`, for which the IC50 in data set [1] came to 255 nM. In data set [2], the inhibition constant Ki was 13 nM. For the same compound, in data set [3], the Ratio stood at 1490 M⁻¹ s⁻¹.

Take `Cc1cc(C)nc(SC(=O)c2cc3ccccc3[nH]2)n1`: the IC50 in data set [1] was found to be 2030 nM. The Ki in data set [2] worked out at 773 nM. For the same compound, the Ratio in data set [3] came out at 1790 M⁻¹ s⁻¹.

For `Cc1nnc(SC(=O)c2ccc3cc[nH]c3c2)s1`, the Activity result in data set [4] and in data set [6] was “Non-Toxic” in each case. Also, the figures for the IC50 in data set [1] and in data set [5] were 54.7 nM and 271 nM, respectively. Moreover, in data set [2], the Ki was 186 nM. Besides, in data set [3], the Ratio is 5850 M⁻¹ s⁻¹.

For the compound `Cc1nnc(SC(=O)c2cc3ccccc3o2)s1`, in data set [1], the IC50 is 316 nM. In addition, the Ki in data set [2] turned out to be 35.7 nM. Also, the Ratio in data set [3] was 5190 M⁻¹ s⁻¹.

For the compound `Cc1cc(C)nc(SC(=O)c2ccc(C#Cc3ccccc3)o2)n1`, the IC50 in data set [1] was found to be 288 nM.

For the compound `Cc1nnc(SC(=O)c2ccc(-c3ccccc3)o2)s1`, the Activity entry in data set [4] and in data set [6] was “Non-Toxic” throughout. Also, in data set [1], the IC50 was 34.4 nM. In data set [7], this compound came in with an EC50 of 100 nM.

For the compound `Cc1nnc(SC(=O)c2ccc(-c3ccccc3)[nH]2)s1`, the IC50 in data set [1] came out at 235 nM. Further, the Ki in data set [2] came out at 605 nM. In addition, the Ratio in data set [3] turned out to be 5070 M⁻¹ s⁻¹.

In the case of `O=C(Sc1ncccn1)c1ccc(-c2ccccc2)o1`, the Activity entry in data set [4] and in data set [6] was “Non-Toxic” each time. Moreover, the results for the 50% inhibitory concentration (IC50) in data set [1] and in data set [5] were 18.1 nM and 79 nM, respectively.

Regarding `Cc1nnc(SC(=O)c2cc3ccccc3[nH]2)n1C(=O)c1cc2ccccc2[nH]1`, in data set [1], the IC50 was 281 nM. In addition, the Ki in data set [2] is 77.3 nM. Further, the Ratio in data set [3] stood at 12200 M⁻¹ s⁻¹.

For `Cc1nnc(SC(=O)c2cc3ccccc3[nH]2)s1`, in data set [1], the IC50 came to 624 nM.

For `Cc1nnc(SC(=O)c2cccc3[nH]ccc23)s1`, the Activity result in data set [4] and in data set [6] was “Non-Toxic” each time. Moreover, the IC50 in data set [1] stood at 60 nM; in data set [5], 486 nM. For the same compound, a half-maximal response in data set [7] (EC50) required 367 nM.

Consider `O=C(Sc1ncccn1)c1ccc(-c2ccccc2)s1`, for which the IC50 in data set [1] was found to be 13.7 nM.

With `O=C(Sc1nc2ccccc2s1)c1ccc(-c2ccccc2)o1`, the IC50 in data set [1] turned out to be 166 nM. The Ki in data set [2] was found to be 612 nM. Besides, the Ratio in data set [3] amounted to 515 M⁻¹ s⁻¹.

Take `O=C(Sc1nc2ccccc2s1)c1cc2ccccc2[nH]1`: the Activity entry in data set [4] and in data set [6] was “Non-Toxic” each time. For the same compound, the IC50 in data set [1] was 117 nM. Moreover, the Ki in data set [2] was 72.6 nM. The EC50 in data set [7] is 137 nM.

For `O=C(Sc1nc2ccccc2s1)c1ccc(-c2ccccc2)s1`, the IC50 in data set [1] came out at 125 nM. Further, the Ki in data set [2] was found to be 42 nM. In addition, in data set [3], the Ratio turned out to be 2100 M⁻¹ s⁻¹.

Turning to `O=C(Sc1nc2ccccc2s1)c1cc2ccccc2s1`, in data set [1], the IC50 turned out to be 190 nM. Besides, the Ki in data set [2] turned out to be 161 nM. In addition, in data set [3], the Ratio turned out to be 2000 M⁻¹ s⁻¹.

Turning to `O=C(Sc1ncccn1)c1cc2ccccc2s1`, the IC50 in data set [1] was determined as 15.5 nM.

In the case of `COc1ccc2cc([C@H](C)C(=O)Sc3ncccn3)ccc2c1`, the IC50 in data set [1] stood at 551 nM. The Ki in data set [2] was determined as 21 nM. For the same compound, the Ratio in data set [3] stood at 33900 M⁻¹ s⁻¹.

Consider `Cc1nnc(SC(=O)c2cc3ccccc3[nH]2)o1`, for which the half-inhibitory concentration (IC50) in data set [1] was determined as 1220 nM. For the same compound, the Ki in data set [2] stood at 119 nM. The Ratio in data set [3] came to 3880 M⁻¹ s⁻¹.

Take `Cc1nnc(SC(=O)c2ccc(Br)o2)s1`: in data set [1], the IC50 turned out to be 481 nM.

For the compound `CSc1nnc(SC(=O)c2cc3ccccc3[nH]2)s1`, the Activity entry in data set [4] and in data set [6] was “Non-Toxic” in each case. Moreover, the values for the IC50 in data set [1] and in data set [5] were 91.4 nM and 1130 nM, respectively. In data set [2], the Ki is 43 nM. In addition, the Ratio in data set [3] turned out to be 11800 M⁻¹ s⁻¹.

Take `O=C(Sc1ncccn1)c1ccc(-c2ccc(Br)cc2)s1`: the Activity entry in data set [4] and in data set [6] was “Non-Toxic” throughout. The IC50 in data set [1] came out at 14.4 nM.
